Like-named read-outs stand apart in the source and are kept apart here.
What was measured:
Format in all cases: in vivo
[1] = tested on: Diabrotica balteata (Corn root worm); test: Diabrotica balteata (Corn root worm) mortality test on sprayed maize sprouts; details: 96 h
Protocol: Diabrotica balteata (Corn root worm):
Maize sprouts placed onto an agar layer in 24-well microtiter plates were treated with aqueous test solutions prepared from 10′000 ppm DMSO stock solutions by spraying. After drying, the plates were infested with L2 larvae (6 to 10 per well). The samples were assessed for mortality 4 days after infestation.

[2] = tested on: Euschistus heros (Neotropical Brown Stink Bug); test: Euschistus heros (Neotropical Brown Stink Bug): feeding/contact activity; details: 120 h
Protocol: Euschistus heros (Neotropical Brown Stink Bug): Feeding/Contact Activity
Soybean leaves on agar in 24-well microtiter plates were sprayed with aqueous test solutions prepared from 10,000 ppm DMSO stock solutions. After drying the leaves were infested with N2 nymphs. The samples were assessed for mortality 5 days after infestation.

[3] = tested on: Myzus persicae (Green Peach Aphid); test: Myzus persicae (Green Peach Aphid): feeding/contact activity; details: foliar, 144 h
Protocol: Myzus persicae (Green Peach Aphid): Feeding/Contact Activity
(§1) Sunflower leaf discs were placed onto agar in a 24-well microtiter plate and sprayed with aqueous test solutions prepared from 10,000 ppm DMSO stock solutions. After drying, the leaf discs were infested with an aphid population of mixed ages. The samples were assessed for mortality 6 days after infestation.

[4] = tested on: Plutella xylostella (Diamond Back Moth); test: Plutella xylostella (Diamond Back Moth): feeding/contact activity; details: 120 h
Protocol: Plutella xylostella (Diamond Back Moth): Feeding/Contact Activity
24-well microtiter plates with artificial diet were treated with aqueous test solutions prepared from 10′000 ppm DMSO stock solutions by pipetting. After drying, the plates were infested with L2 larvae (10 to 15 per well). The samples were assessed for mortality 5 days after infestation.

[5] = tested on: Spodoptera littoralis (Egyptian Cotton Leaf Worm); test: Spodoptera littoralis (Egyptian Cotton Leaf Worm): feeding/contact activity; details: foliar, 72 h
Protocol: Spodoptera littoralis (Egyptian Cotton Leaf Worm): Feeding/Contact Activity
Cotton leaf discs were placed onto agar in 24-well microtiter plates and sprayed with aqueous test solutions prepared from 10′000 ppm DMSO stock solutions. After drying the leaf discs were infested with five L1 larvae. The samples were assessed for mortality 3 days after infestation.

[6] = tested on: Thrips tabaci (Onion Thrips); test: Thrips tabaci (Onion Thrips): feeding/contact activity; details: foliar, 144 h
Protocol: Thrips tabaci (Onion Thrips): Feeding/Contact Activity
as §1, with “on” for “onto”, “in” for “in a”, “plates” for “plate”, “10′000” for “10,000”, “drying” for “drying,”, “a thrips” for “an aphid”

[7] = tested on: Tetranychus urticae (Two-Spotted Spider Mite); test: Tetranychus urticae (Two-Spotted Spider Mite): feeding/contact activity; details: foliar, 192 h, read-out: mortality on mixed population (mobile stages)
Protocol: Tetranychus urticae (Two-Spotted Spider Mite): Feeding/Contact Activity
Bean leaf discs on agar in 24-well microtiter plates were sprayed with aqueous test solutions prepared from 10′000 ppm DMSO stock solutions. After drying the leaf discs were infested with a mite population of mixed ages. The samples were assessed for mortality on mixed population (mobile stages) 8 days after infestation.

[8] = application rate 200 ppm, maize sprouts sprayed, L2 larvae, assessed 4 days after infestation, read-out: mortality
[9] = application rate 200 ppm, soybean leaves sprayed, N2 nymphs, assessed 5 days after infestation, read-out: mortality
[10] = application rate 200 ppm, sunflower leaf discs sprayed, aphid population of mixed ages, assessed 6 days after infestation, read-out: mortality
[11] = application rate 200 ppm, artificial diet treated by pipetting, L2 larvae, assessed 5 days after infestation, read-out: mortality
[12] = application rate 200 ppm, cotton leaf discs sprayed, L1 larvae, assessed 3 days after infestation, read-out: mortality
[13] = application rate 200 ppm, sunflower leaf discs sprayed, thrips population of mixed ages, assessed 6 days after infestation, read-out: mortality
[14] = application rate 200 ppm, bean leaf discs sprayed, mite population of mixed ages, assessed 8 days after infestation

Measured: mortality at 200 ppm

CC(C)CN(C(=O)c1cc(-c2cnn(-c3c(OC(F)F)c(C(F)(F)C(F)(F)F)nn3C)c2)ccc1Cl)C1(C#N)CC1 [Compound 11, 2-chloro-N-(1-cyanocyclopropyl)-5-[1-[4-(difluoromethoxy)-2-methyl-5-(1,1,2,2,2-pentafluoroethyl)pyrazol-3-yl]pyrazol-4-yl]-N-isobutyl-benzamide]
≥ 80%: [1]; [8] | [2]; [9] | [3]; [10] | [4]; [11] | [5]; [12] | [6]; [13]

CC(=O)N(C(=O)c1cc(-c2cnn(-c3c(OC(F)F)c(C(F)(F)C(F)(F)F)nn3C)c2)cnc1Cl)C1(C#N)CC1 [Compound 22, N-acetyl-2-chloro-N-(1-cyanocyclopropyl)-5-[1-[4-(difluoromethoxy)-2-methyl-5-(1,1,2,2,2-pentafluoroethyl)pyrazol-3-yl]pyrazol-4-yl]pyridine-3-carboxamide]
≥ 80%: [1]; [8] | [2]; [9] | [3]; [10] | [4]; [11] | [5]; [12] | [7]; [14] | [6]; [13]

CC(=O)N(C(=O)c1cc(-c2cnn(-c3c(OC(F)F)c(C(F)(F)C(F)(F)F)nn3C)c2)ccc1Cl)C1(C#N)CC1 [Compound 8, N-acetyl-2-chloro-N-(1-cyanocyclopropyl)-5-[1-[4-(difluoromethoxy)-2-methyl-5-(1,1,2,2,2-pentafluoroethyl)pyrazol-3-yl]pyrazol-4-yl]benzamide]
≥ 80%: [1]; [8] | [2]; [9] | [3]; [10] | [4]; [11] | [5]; [12] | [7]; [14]

CCOCN(C(=O)c1cc(-c2cnn(-c3c(OC(F)F)c(C(F)(F)C(F)(F)F)nn3C)c2)cnc1Cl)C1(C#N)CC1 [Compound 14, 2-chloro-N-(1-cyanocyclopropyl)-5-[1-[4-(difluoromethoxy)-2-methyl-5-(1,1,2,2,2-pentafluoroethyl)pyrazol-3-yl]pyrazol-4-yl]-N-(ethoxymethyl)pyridine-3-carboxamide]
≥ 80%: [1]; [8] | [2]; [9] | [3]; [10] | [4]; [11] | [5]; [12] | [7]; [14] | [6]; [13]

CCOC(=O)N(C(=O)c1cc(-c2cnn(-c3c(OC(F)F)c(C(F)(F)C(F)(F)F)nn3C)c2)ccc1Cl)C1(C#N)CC1 [Compound 6, ethyl N-[2-chloro-5-[1-[4-(difluoromethoxy)-2-methyl-5-(1,1,2,2,2-pentafluoroethyl)pyrazol-3-yl]pyrazol-4-yl]benzoyl]-N-(1-cyanocyclopropyl)carbamate]
≥ 80%: [1] | [2]; in Glycine max | [3] | [4] | [5] | [7] | [6]

CCOC(=O)N(C(=O)c1cc(-c2cnn(-c3c(OC(F)F)c(C(F)(F)C(F)(F)F)nn3C)c2)cnc1Cl)C1(C#N)CC1 [Compound 16, ethyl N-[2-chloro-5-[1-[4-(difluoromethoxy)-2-methyl-5-(1,1,2,2,2-pentafluoroethyl)pyrazol-3-yl]pyrazol-4-yl]pyridine-3-carbonyl]-N-(1-cyanocyclopropyl)carbamate]
≥ 80%: [1] | [2]; in Glycine max | [3] | [4] | [5] | [7] | [6]

C#CCN(C(=O)c1cc(-c2cnn(-c3c(OC(F)F)c(C(F)(F)C(F)(F)F)nn3C)c2)cnc1Cl)C1(C#N)CC1 [Compound 21, 2-chloro-N-(1-cyanocyclopropyl)-5-[1-[4-(difluoromethoxy)-2-methyl-5-(1,1,2,2,2-pentafluoroethyl)pyrazol-3-yl]pyrazol-4-yl]-N-prop-2-ynyl-pyridine-3-carboxamide]
≥ 80%: [1]; [8] | [2]; [9] | [3]; [10] | [4]; [11] | [5]; [12] | [7]; [14] | [6]; [13]

CC(C)C(=O)N(C(=O)c1cc(-c2cnn(-c3c(OC(F)F)c(C(F)(F)C(F)(F)F)nn3C)c2)ccc1Cl)C1(C#N)CC1 [Compound 12, 2-chloro-N-(1-cyanocyclopropyl)-5-[1-[4-(difluoromethoxy)-2-methyl-5-(1,1,2,2,2-pentafluoroethyl)pyrazol-3-yl]pyrazol-4-yl]-N-(2-methylpropanoyl)benzamide]
≥ 80%: [1]; [8] | [2]; [9] | [3]; [10] | [4]; [11] | [5]; [12] | [7]; [14]

COCN(C(=O)c1cc(-c2cnn(-c3c(OC(F)F)c(C(F)(F)C(F)(F)F)nn3C)c2)ccc1Cl)C1(C#N)CC1 [Compound 1, 2-chloro-N-(1-cyanocyclopropyl)-5-[1-[4-(difluoromethoxy)-2-methyl-5-(1,1,2,2,2-pentafluoroethyl)pyrazol-3-yl]pyrazol-4-yl]-N-(methoxymethyl)benzamide]
≥ 80%: [1]; [8] | [2]; [9] | [3]; [10] | [4]; [11] | [5]; [12] | [7]; [14] | [6]; [13]

Cn1nc(C(F)(F)C(F)(F)F)c(OC(F)F)c1-n1cc(-c2ccc(Cl)c(C(=O)N(CC3CC3)C3(C#N)CC3)c2)cn1 [Compound 9, 2-chloro-N-(1-cyanocyclopropyl)-N-(cyclopropylmethyl)-5-[1-[4-(difluoromethoxy)-2-methyl-5-(1,1,2,2,2-pentafluoroethyl)pyrazol-3-yl]pyrazol-4-yl]benzamide]
≥ 80%: [1]; [8] | [2]; [9] | [3]; [10] | [4]; [11] | [5]; [12] | [7]; [14] | [6]; [13]

C#CCN(C(=O)c1cc(-c2cnn(-c3c(OC(F)F)c(C(F)(F)C(F)(F)F)nn3C)c2)ccc1Cl)C1CC1 [Compound 2, 2-chloro-N-cyclopropyl-5-[1-[4-(difluoromethoxy)-2-methyl-5-(1,1,2,2,2-pentafluoroethyl)pyrazol-3-yl]pyrazol-4-yl]-N-prop-2-ynyl-benzamide]
≥ 80%: [1]; [8] | [2]; [9] | [3]; [10] | [4]; [11] | [5]; [12] | [7]; [14] | [6]; [13]

Cn1nc(C(F)(F)C(F)(F)F)c(OC(F)F)c1-n1cc(-c2ccc(Cl)c(C(=O)N(CC(F)(F)F)C3(C#N)CC3)c2)cn1 [Compound 10, 2-chloro-N-(1-cyanocyclopropyl)-5-[1-[4-(difluoromethoxy)-2-methyl-5-(1,1,2,2,2-pentafluoroethyl)pyrazol-3-yl]pyrazol-4-yl]-N-(2,2,2-trifluoroethyl)benzamide]
≥ 80%: [1]; [8] | [3]; [10] | [4]; [11] | [5]; [12] | [6]; [13]

COC(=O)N(C(=O)c1cc(-c2cnn(-c3c(OC(F)F)c(C(F)(F)C(F)(F)F)nn3C)c2)ccc1Cl)C1(C#N)CC1 [Compound 7, methyl N-[2-chloro-5-[1-[4-(difluoromethoxy)-2-methyl-5-(1,1,2,2,2-pentafluoroethyl)pyrazol-3-yl]pyrazol-4-yl]benzoyl]-N-(1-cyanocyclopropyl)carbamate]
≥ 80%: [1] | [2]; in Glycine max | [3] | [4] | [5] | [7]
